From patent US11090273B2, “Tagged poly(ester amide urethane)s, nanoparticles formed from same, and uses thereof” (Cornell University, priority 2016, dated 2021)

Experiments:
A549 cells = assay: Mitochondrial membrane potential (ΔΨm) change, JC-1 flow cytometry; assay type: cell-based, human; settings: 2 μg/mL GA equivalent (CCCP 50 μM), 24 h
HeLa cells = assay: as above; assay type: cell-based; settings: 2 μg/mL GA equivalent (CCCP 50 μM), 24 h
HCT116 cells = assay: Cellular apoptosis by flow cytometry (Annexin V-FITC/PI); assay type: cell-based, human; settings: HCT 116; 2 μg/mL GA or equal amount loaded; 24 h
Experimental: Apoptosis was assessed using staining with Annexin V-FITC/PI apoptosis detection kit (Affymetrix, CA) according to the manufacturer's instruction followed by flow cytometry analysis.

[1] = test system: MMP-2 and MMP-9 activity of A549 cells; assay: Gelatin zymography of MMP activity; assay type: cell-based, human; settings: 0.6 μg/mL GA equivalent, serum-free media, 16 h
[2] = test system: MCF-7 human breast cancer xenograft tumor; settings: xenograft tumor at end of study
Experimental: In vivo xenograft Protocols Used. Female BALB/c nude mice, 8-weeks old, were obtained from the Laboratory Animal Services Centre, The Chinese University of Hong Kong. Mice were kept at room temperature 23±2° C. with an alternating 12-h light-dark cycle, and were allowed access to food and water ad libitum.
Before inoculation, 10 mg/kg Estradiol benzoate was given into mice through intraperitoneal (IP) injection with 2-day intervals. MCF-7 cells (4×10^6 cells per mouse) were suspended in PBS and inoculated subcutaneously into the left flank of each mouse, and tumor growth was monitored regularly. […] Equal volumes of saline were used as solvent for the free drug groups.
The therapy was continued six times at 2-day intervals through tail vein injection. Estradiol benzoate was also IP injected into mice at 2-day intervals during administration. The antitumor activity of the tested formulations was estimated by recording the changes in tumor mass. Tumor volumes were monitored by recording the tumor length and width with a caliper then calculated using the equation, V=0.5×a×b^2, where V is tumor volume (mm), a is tumor length (mm), and b is tumor width (mm). Mice were sacrificed on the 12th day after administration, and the tumors were weighed. […]

SMILES	percentage of cell population with severe loss of ΔΨm (A549 cells)	percentage of cell population with severe loss of ΔΨm (HeLa cells)	percentage of dead cells (HCT116 cells)	percentage of healthy cells (HCT116 cells)	percentage of late apoptotic cells (HCT116 cells)	MMP band size and intensity / MMP activity (gelatin zymography) [1]	H&E staining: vacuoles in the tumor tissue [2]
N#CC(C#N)=NNc1cccc(Cl)c1 [CCCP, carbonyl cyanide 3-chlorophenylhydrazone]	89.7%	60.0%	–	–	–	–	–
CC(C)=CCC[C@]1(C)C=Cc2c(O)c3c(c(CC=C(C)C)c2O1)O[C@]12C(=C[C@@H]4C[C@H]1C(C)(C)O[C@@]2(C/C=C(/C)C(=O)O)C4=O)C3=O [GA, Gambogic acid]	60.1%	29.7%	27.7%	68.1%	2.0%	reduced when comparing to the control sample	fewer vacuoles
